From patent US20150157739A1, “Imidazo[2,1]thiazol-3-one derivatives” (Hoffmann-La Roche Inc., priority 2012, published 2015) come the findings set out here.

The target in assay [1] is T1, aggregated recombinant human-microtubule associated protein Tau (Homo sapiens, UniProt P10636).
T1 construct: Recombinant human-microtubule associated protein Tau purified from E. coli is aggregated at a concentration of 5 μM with Arachidonic Acid (100 μM) in Tris 10 mM pH8, 24 h at 37° C
The assay can be described thus: Thiazin-red R displacement fluorescence assay on aggregated Tau. It counts as binding. The following applies: displacement of Thiazin-red R from aggregated Tau; compound 0.3 nM to 10000 nM; 30 min room temperature; Ex 531 nm/Em 595 nm. Here is the method: (§1) Assay for Determination of […] for Tau and A-Beta
(§2) Recombinant human-microtubule associated protein Tau purified from E. coli is aggregated at a concentration of 5 μM with Arachidonic Acid (100 μM) in Tris 10 mM pH8, 24 h at 37° C. Synthetic Aβ40 is aggregated at a concentration of 50 μM with Arachidonic Acid (100 μM) in Tris 10 mM pH8, for three days at 37° C., under shaking at 150 rpm.
(§3) A saturation analysis of Thiazin-red R to the aggregated proteins is done to determine the affinity (Kd) of the Thiazin-red R to the aggregated protein.
(§4) Thiazin-red R will be added at the concentration corresponding to the Kd to the respective aggregated protein binding site, to induce a fluorescent signal that can be inhibited by the addition of a displacer compound.
(§5) In parallel, auto fluorescence of the compound is measured together with the aggregated proteins, but without Thiazin-red R. As negative control, ligand and aggregated protein is used and as positive control, Thiazin-red R, reference compound with known activity and aggregated protein is used.
(§6) Assay is performed in Perkin Elmer OptiPlate 384, black, 45 ul assay volume, assay buffer is DPBS no CaCl2 no MgCl2 (GIBCO N. 14020). Tested compounds are diluted in DMSO and 2 μl is added to the assay ([…]). Assay is started by the addition of the aggregated protein (competitive condition). Plates are shortly shacked (1 min with Sterico variomag teleshake) and incubated for 30 min at room temperature. Measurement are done with En:Vision (Perkin Elmer), at Excitation 531 nm/Emission 595 nm.

The target of assay [2] is T2, aggregated synthetic Aβ40 (Homo sapiens, UniProt P05067).
T2 construct: Synthetic Aβ40 is aggregated at a concentration of 50 μM
The assay can be described thus: Thiazin-red R displacement fluorescence assay on aggregated A-beta. The conditions noted are these: displacement of Thiazin-red R from aggregated Aβ40; compound 0.3 nM to 10000 nM; 30 min room temperature; Ex 531 nm/Em 595 nm. Format: binding. On the procedure:
as §1, §2, §3, §4, §5, §6

The structures appear in SMILES notation. Some results are limits rather than exact numbers.

T1 sequence (P10636 whole entry): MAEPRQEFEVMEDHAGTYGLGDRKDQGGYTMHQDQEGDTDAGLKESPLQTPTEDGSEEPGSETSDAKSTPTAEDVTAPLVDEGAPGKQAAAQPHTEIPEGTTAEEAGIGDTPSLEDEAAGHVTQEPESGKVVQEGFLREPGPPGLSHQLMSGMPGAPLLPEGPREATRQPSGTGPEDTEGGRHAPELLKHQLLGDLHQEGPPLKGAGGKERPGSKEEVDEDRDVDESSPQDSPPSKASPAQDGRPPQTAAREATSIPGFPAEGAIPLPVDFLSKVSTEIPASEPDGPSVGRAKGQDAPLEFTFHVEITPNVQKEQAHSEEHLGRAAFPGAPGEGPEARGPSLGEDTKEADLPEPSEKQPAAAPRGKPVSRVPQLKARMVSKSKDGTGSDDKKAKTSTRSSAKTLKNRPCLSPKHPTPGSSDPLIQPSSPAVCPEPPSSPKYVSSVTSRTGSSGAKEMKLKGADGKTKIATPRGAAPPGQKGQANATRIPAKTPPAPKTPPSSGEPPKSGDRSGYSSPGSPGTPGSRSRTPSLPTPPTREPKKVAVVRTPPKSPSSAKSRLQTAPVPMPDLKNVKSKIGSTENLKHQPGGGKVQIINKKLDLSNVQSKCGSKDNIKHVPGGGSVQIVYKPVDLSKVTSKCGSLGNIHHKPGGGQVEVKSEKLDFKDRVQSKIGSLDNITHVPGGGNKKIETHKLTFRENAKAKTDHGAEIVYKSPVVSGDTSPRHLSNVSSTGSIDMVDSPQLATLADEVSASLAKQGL
T2 sequence (P05067 672-711 limits assumed): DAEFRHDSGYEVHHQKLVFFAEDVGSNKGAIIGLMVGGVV

`CCN(CC)c1ccc(-c2cn3c(=O)/c(=C/c4cc(Cl)c(O)c(OC)c4)sc3n2)cc1` [Example 91, 2-[1-(3-Chloro-4-hydroxy-5-methoxy-phenyl)-meth-(Z)-ylidene]-6-(4-(diethylamino)phenyl)-imidazo[2,1-b]thiazol-3-one]: the IC50 (usually the concentration that inhibits the measured activity by half) in assay [1] was 20 nM; in assay [2], 184 nM.

On to `COc1cc(/C=c2\sc3nc(-c4cccc(C(F)(F)F)c4)cn3c2=O)cc(Cl)c1O` [Example 24, 2-[1-(3-Chloro-4-hydroxy-5-methoxy-phenyl)-meth-(Z)-ylidene]-6-(3-trifluoromethyl-phenyl)-imidazo[2,1-b]thiazol-3-one], for which the IC50 was found to be 3 nM in assay [1] and 123 nM in assay [2].

For `COc1cc(/C=c2\sc3nc(-c4cc(C)nc(C)c4)cn3c2=O)ccc1O` [Example 13, 2-[1-(4-Hydroxy-3-methoxy-phenyl)-meth-(Z)-ylidene]-6-(2,6-dimethyl-pyridin-4-yl)-imidazo[2,1-b]thiazol-3-one], the IC50 in assay [1] was 91 nM; in assay [2], over 10000 nM.

On to `C=CCOc1cccc(-c2cn3c(=O)/c(=C/c4cc(Cl)c(O)c(OC)c4)sc3n2)c1` [Example 80, 2-[1-(3-Chloro-4-hydroxy-5-methoxy-phenyl)-meth-(Z)-ylidene]-6-(3-(allyloxy)phenyl)-imidazo[2,1-b]thiazol-3-one], for which the results for the half-maximal inhibitory concentration (IC50) in assay [1] and in assay [2] were 6 nM and 20 nM, respectively.

As to `COc1cc(/C=c2\sc3nc(-c4cc(C)nc(C)c4)cn3c2=O)cc(Br)c1O` [Example 65, 2-[1-(3-Bromo-4-hydroxy-5-methoxy-phenyl)-meth-(Z)-ylidene]-6-(2,6-dimethyl-pyridin-4-yl)-imidazo[2,1-b]thiazol-3-one], the IC50 was 7 nM in assay [1] and 304 nM in assay [2].

As to `CCc1cccc(-c2cn3c(=O)/c(=C/c4cc(Cl)c(O)c(OC)c4)sc3n2)c1` [Example 54, 2-[1-(3-Chloro-4-hydroxy-5-methoxy-phenyl)-meth-(Z)-ylidene]-6-(3-ethyl-phenyl)-imidazo[2,1-b]thiazol-3-one], the values for the IC50 in assay [1] and in assay [2] were 25 nM and 653 nM, respectively.

On to `COc1cccc(-c2cn3c(=O)/c(=C/c4cc(Cl)c(O)c(OC)c4)sc3n2)c1` [Example 61, 2-[1-(3-Chloro-4-hydroxy-5-methoxy-phenyl)-meth-(Z)-ylidene]-6-(3-methoxy-phenyl)-imidazo[2,1-b]thiazol-3-one], for which the IC50 in assay [1] was determined as 4 nM; in assay [2], 395 nM.

Regarding `COc1cc(/C=c2\sc3nc(-c4ccccc4)cn3c2=O)cc(F)c1O` [Example 43, 2-[1-(3-fluoro-4-hydroxy-5-methoxy-phenyl)-meth-(Z)-ylidene]-6-phenyl-imidazo[2,1-b]thiazol-3-one], the IC50 was 51 nM in assay [1] and 2320 nM in assay [2].

In the case of `CCc1cc(/C=c2\sc3nc(-c4cccc(OC(F)(F)F)c4)cn3c2=O)cc(OC)c1O` [Example 40, 2-[1-(3-Ethyl-4-hydroxy-5-methoxy-phenyl)-meth-(Z)-ylidene]-6-(3-trifluoromethoxy-phenyl)-imidazo[2,1-b]thiazol-3-one], the values for the concentration for half-maximal inhibition (IC50) in assay [1] and in assay [2] were 701 nM and over 10000 nM, respectively.

Turning to `CCCNC(=O)c1ccc(-c2cn3c(=O)/c(=C/c4cc(Cl)c(O)c(OC)c4)sc3n2)cc1` [Example 115, 4-{2-[1-(3-Chloro-4-hydroxy-5-methoxy-phenyl)-meth-(Z)-ylidene]-3-oxo-2,3-dihydro-imidazo[2,1-b]thiazol-6-yl}-N-propyl-benzamide], the IC50 in assay [1] was 2 nM; in assay [2], 356 nM.

In the case of `COc1cc(/C=c2\sc3nc(-c4cccc(OC(F)(F)F)c4)cn3c2=O)cc(OC)c1O` [Example 18, 2-[1-(4-Hydroxy-3,5-dimethoxy-phenyl)-meth-(Z)-ylidene]-6-(3-trifluoromethoxy-phenyl)-imidazo[2,1-b]thiazol-3-one], the values for the IC50 in assay [1] and in assay [2] were 4 nM and 114 nM, respectively.
